From publication PMC11356571, “The Comparative Metabolism of a Novel Hepatocellular Carcinoma Therapeutic Agent, 2,3-Diamino-N-(4-(benzo[d]thiazol-2-yl)phenyl)propanamide, in Human and Animal Hepatocytes” (Metabolites, 2024)

Experiments:
Format in all cases: in vitro ADME
mouse hepatocytes = experiment: Metabolite characterization in mouse hepatocytes; conditions: mouse hepatocyte 1 h incubates of ETN101; ND:<1.2E+05 peak area
Procedure: (§1) We mixed 60 μL aliquots of 40 μM ETN101 in incubation medium and an equal volume of human, mouse, rat, dog, or monkey hepatocyte suspension in 96-well plates and incubated for 0 or 1 h in a CO2 incubator at 37 °C. The reactions were quenched by adding 120 µL of ice-cold acetonitrile to each well, and the cell suspension was sonicated for 5 min at 4 °C. Subsequently, centrifugation was carried out at 15,000× g for 10 min at 4 °C. Next, the supernatants were evaporated to dryness using a vacuum concentrator, and residues were re-dissolved in 70 μL of 30% acetonitrile. Each sample (5 μL aliquots) was analyzed using LC–HRMS system.
(§2) For metabolite characterization, a Vanquish HPLC system (Thermo Fisher Scientific, San José, CA, USA) coupled with a Q-Exactive Orbitrap mass spectrometer (Thermo Fisher Scientific Inc., Waltham, MA, USA) was used at Core Research Support Center for Natural Products and Medical Materials at Yeungnam University. […] The eluent from the column was directly injected into the mass spectrometer using a heated electrospray ionization (HESI) source in positive ionization mode. […] The spray voltage was 3.0 kV and the capillary temperature was 320 °C. Full scan MS^1 with a data-dependent MS^2 acquisition mode was applied to obtain MS^1 scan data ranging from m/z 80 to 900, at a resolution of 70,000, whereas data-dependent MS^2 spectra were acquired for the five most abundant peaks per cycle at a resolution of 35,000. The parallel reaction monitoring (PRM) mode was used to obtain the MS^2 spectra of putative metabolites detected at low peak intensities in the data-dependent MS^2 acquisition mode. Data were collected and interpreted using Thermo Scientific Xcalibur™ Software (Thermo Fisher Scientific).

rat hepatocytes = experiment: Metabolite characterization in rat hepatocytes; conditions: rat hepatocyte 1 h incubates of ETN101; ND:<1.2E+05 peak area
Procedure: as §1, §2

CES1b = target: T1, CES1b (Homo sapiens, UniProt P23141); experiment: Incubation with human recombinant CES1b; conditions: 60 min at 37 °C, ETN101 10 μM or M1 1 μM
T1 construct: purchased Corning Life Sciences (Woburn, MA, USA)
T1 sequence (P23141 18-567): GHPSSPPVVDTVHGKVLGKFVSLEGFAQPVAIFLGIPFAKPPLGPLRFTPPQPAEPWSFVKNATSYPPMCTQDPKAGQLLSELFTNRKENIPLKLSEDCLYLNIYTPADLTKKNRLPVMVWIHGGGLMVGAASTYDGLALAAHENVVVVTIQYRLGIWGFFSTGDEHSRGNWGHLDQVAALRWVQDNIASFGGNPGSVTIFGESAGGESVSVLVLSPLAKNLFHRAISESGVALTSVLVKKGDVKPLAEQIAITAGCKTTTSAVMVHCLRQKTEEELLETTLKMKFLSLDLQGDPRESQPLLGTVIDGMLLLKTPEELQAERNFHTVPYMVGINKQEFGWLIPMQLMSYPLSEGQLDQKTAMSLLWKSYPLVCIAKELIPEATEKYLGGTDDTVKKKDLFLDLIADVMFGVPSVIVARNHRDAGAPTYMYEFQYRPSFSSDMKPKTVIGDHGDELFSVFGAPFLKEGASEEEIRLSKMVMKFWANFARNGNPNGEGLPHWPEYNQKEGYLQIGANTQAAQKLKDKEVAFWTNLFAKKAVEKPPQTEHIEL
Procedure: To screen for CES enzymes responsible for the hydrolysis of ETN101 or M1, 50 μL of reaction mixtures containing human cDNA-expressed CES enzymes (CES1b, CES1c, and CES2) at the concentration of 1 mg/mL, 10 μM ETN101, or 1 μM M1 in 0.1 M potassium phosphate buffer were incubated at 37 °C for 0 min or 60 min in triplicate. The reactions were quenched by adding 50 μL of ice-cold acetonitrile containing the internal standard (camptothecin, 10 μg/mL). Following centrifugation at 13,000 rpm for 5 min, a 2 μL aliquot of the supernatant was injected into the LC-MS/MS system.
The mobile phases comprised 0.1% (v/v) formic acid in water (mobile phase A) and 0.1% formic acid (v/v) in acetonitrile (mobile phase B). […] The column and auto-sampler were maintained at 40 °C and 4 °C, respectively. ETN101, M1, and M2 were detected via MRM using ESI in the positive mode. […] Mass Hunter software (Agilent Technologies) was used to control the LC-MS/MS instrument and for data processing.

SMILES	Relative peak area (%) (mouse hepatocytes)	Relative peak area (%) (rat hepatocytes)	Percentage remaining (CES1b) [%]
NCC(N)C(=O)Nc1ccc(-c2nc3ccccc3s2)cc1 (stereo not drawn) [ETN101, 2,3-diamino-N-(4-(benzo[d]thiazol-2-yl)phenyl)propanamide]	26.8	18.7	98.6
Nc1ccc(-c2nc3ccccc3s2)cc1 [M1, 2-(4-aminophenyl)benzothiazole]	71.8	75.2	99.6
